Reference: PubChem BioAssay (NCI)
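Here, GI50 denotes the concentration required for 50% inhibition of growth. At the TGI there is no net growth.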

Columns and labels:
Assay in all cases: NCI tumour cell line growth inhibition, 384-well format
[1] = tested on: A549 NSCLC
[2] = tested on: OVCAR-3 ovarian
[3] = tested on: K-562 leukemia
[4] = tested on: OVCAR-8 ovarian
[5] = tested on: NCI-H226 lung
[6] = tested on: SF-268 CNS
[7] = tested on: RXF 393 renal
[8] = tested on: NCI-H23 lung
[9] = tested on: RPMI-8226 leukemia
[10] = tested on: SN12C renal
[11] = tested on: OVCAR-4 ovarian
[12] = tested on: SK-OV-3 ovarian
[13] = tested on: LOX IMVI melanoma
[14] = tested on: SF-539 CNS
[15] = tested on: T-47D breast
[16] = tested on: U251 glioblastoma
[17] = tested on: BT-549 breast
[18] = tested on: SNB-19 CNS
[19] = tested on: CAKI-1 renal
[20] = tested on: SF-295 CNS
[21] = tested on: HOP-92 NSCLC
[22] = tested on: HS 578T breast
[23] = tested on: NCI-H522 lung
[24] = tested on: MALME-3M melanoma
[25] = tested on: M14 melanoma
[26] = tested on: NCI-H460 NSCLC
[27] = tested on: COLO 205 colon
[28] = tested on: PC-3 prostate
[29] = tested on: TK-10 renal
[30] = tested on: 786-0 renal
[31] = tested on: CCRF-CEM leukemia
[32] = tested on: NCI-H322M lung
[33] = tested on: HCT-15 colon
[34] = tested on: SK-MEL-28 melanoma
[35] = tested on: MDA-MB-468 breast
[36] = tested on: ACHN renal
[37] = tested on: MDA-MB-435 melanoma
[38] = tested on: KM12 colon
[39] = tested on: MDA-MB-231 breast
[40] = tested on: SNB-75 CNS
[41] = tested on: IGROV1 ovarian
[42] = tested on: SW-620 colon
[43] = tested on: MCF7 breast
[44] = tested on: HL-60(TB) leukemia
[45] = tested on: MOLT-4 leukemia
[46] = tested on: UACC-62 melanoma
[47] = tested on: EKVX NSCLC
[48] = tested on: HT29 colon
[49] = tested on: DU-145 prostate
[50] = tested on: UO-31 renal
[51] = tested on: HCC-2998 colon
[52] = tested on: A498 renal
[53] = tested on: HOP-62 NSCLC
[54] = tested on: HCT-116 colon
[55] = tested on: NCI/ADR-RES ovarian
[56] = tested on: OVCAR-5 ovarian
[57] = tested on: SK-MEL-2 melanoma
[58] = tested on: UACC-257 melanoma

In the case of `FC(F)(F)c1ccc(Nc2nc(-c3c(C(F)(F)F)nc4ccccn34)cs2)cc1`, the GI50 [1] is reported as 0.0619 µM, the TGI [1] is reported as 3.74 µM and the GI50 [2] is reported as 0.0166 µM. The TGI [2] was 0.0391 µM, the GI50 [3] was 0.0276 µM and the TGI [3] was 0.0898 µM. The GI50 [4] was 0.0357 µM, the TGI [4] was 1.15 µM and the GI50 [5] was 0.0302 µM. The TGI [5] was 0.0867 µM, the GI50 [6] was 0.0354 µM and the TGI [6] was 1.43 µM. The GI50 [7] was 0.0134 µM, the TGI [7] was 0.0428 µM and the GI50 [8] was 0.0264 µM. The TGI [8] was 0.0896 µM, the GI50 [9] was 0.0183 µM and the TGI [9] was 0.0368 µM. The GI50 [10] was 0.0386 µM, the TGI [10] was 2.4 µM and the GI50 [11] was 1 µM. It also gave a TGI [11] of 4.46 µM, a GI50 [12] of 0.0348 µM and a TGI [12] of 1.66 µM. For the same molecule, the GI50 [13] was 0.0484 µM, the TGI [13] was 2.21 µM and the GI50 [14] was 0.0357 µM. The TGI [14] was 0.179 µM, the GI50 [15] was 0.0289 µM and the TGI [15] was 3.23 µM. For the same molecule, the GI50 [16] was 0.0424 µM, the TGI [16] was 1.49 µM and the GI50 [17] was 0.0391 µM. It also gave a TGI [17] of 1.24 µM, a GI50 [18] of 0.0471 µM and a TGI [18] of 1.96 µM. For the same molecule, the GI50 [19] was 0.0264 µM, the TGI [19] was 1.85 µM and the GI50 [20] was 0.0321 µM. It also gave a TGI [20] of 0.356 µM, a GI50 [21] of 0.0411 µM and a TGI [21] of 2.97 µM. The GI50 [22] was 0.0172 µM, the TGI [22] was 0.0375 µM and the GI50 [23] was 0.0167 µM. The TGI [23] was 0.0366 µM, the GI50 [24] was 0.032 µM and the TGI [24] was 6.49 µM. The GI50 [25] was 0.0252 µM, the TGI [25] was 0.0885 µM and the GI50 [26] was 0.0302 µM. The TGI [26] was 0.0833 µM, the GI50 [27] was 0.0265 µM and the TGI [27] was 0.0671 µM. For the same molecule, the GI50 [28] was 0.0326 µM, the TGI [28] was 1.82 µM and the GI50 [29] was 0.0693 µM. For the same molecule, the TGI [29] was 5.31 µM, the GI50 [30] was 0.0327 µM and the TGI [30] was 1.22 µM. For the same molecule, the GI50 [31] was 0.0196 µM, the TGI [31] was 0.0369 µM and the GI50 [32] was 0.0504 µM. It also gave a TGI [32] of 2.56 µM, a GI50 [33] of 0.0324 µM and a TGI [33] of 1.32 µM. It also gave a GI50 [34] of 0.0521 µM, a TGI [34] of 5.08 µM and a GI50 [35] of 0.161 µM. The TGI [35] was 0.31 µM, the GI50 [36] was 0.0889 µM and the TGI [36] was 3.19 µM. The GI50 [37] was 0.0128 µM, the TGI [37] was 0.0332 µM and the GI50 [38] was 0.0244 µM. For the same molecule, the TGI [38] was 1.08 µM, the GI50 [39] was 0.0524 µM and the TGI [39] was 4.69 µM. For the same molecule, the GI50 [40] was 0.0221 µM, the TGI [40] was 0.0787 µM and the GI50 [41] was 0.0732 µM. The TGI [41] was 7.33 µM, the GI50 [42] was 0.0339 µM and the TGI [42] was 2.6 µM. It also gave a GI50 [43] of 0.0303 µM, a TGI [43] of 1.45 µM and a GI50 [44] of 0.0147 µM. The TGI [44] was 0.0284 µM, the GI50 [45] was 0.0189 µM and the TGI [45] was 0.0374 µM. The GI50 [46] was 0.0275 µM, the TGI [46] was 1.59 µM and the GI50 [47] was 0.0432 µM. It also gave a TGI [47] of 2.39 µM, a GI50 [48] of 0.0238 µM and a TGI [48] of 0.0525 µM. The GI50 [49] was 0.0328 µM, the TGI [49] was 1.37 µM and the GI50 [50] was 0.0422 µM. It also gave a TGI [50] of 3.42 µM, a GI50 [51] of 0.0321 µM and a TGI [51] of 0.375 µM. The GI50 [52] was 0.0327 µM, the TGI [52] was 1.24 µM and the GI50 [53] was 0.0335 µM. The TGI [53] was 1.44 µM, the GI50 [54] was 0.0328 µM and the TGI [54] was 1.44 µM. For the same molecule, the GI50 [55] was 0.0195 µM and the TGI [55] was 0.0424 µM.

For `O=C(CCCCCCC(=O)Nc1ccccc1)NO`, the GI50 [1] was 1.41 µM, the TGI [1] was 4.16 µM and the GI50 [2] was 1.57 µM. For the same molecule, the TGI [2] was 4.24 µM, the GI50 [3] was 0.408 µM and the TGI [3] was 1.49 µM. The GI50 [4] was 0.486 µM, the TGI [4] was 2.4 µM and the GI50 [5] was 3.93 µM. It also gave a TGI [5] of 16.8 µM, a GI50 [6] of 1.25 µM and a TGI [6] of 2.81 µM. For the same molecule, the GI50 [7] was 0.471 µM, the TGI [7] was 1.41 µM and the GI50 [8] was 1.37 µM. It also gave a TGI [8] of 3.99 µM, a GI50 [10] of 1.81 µM and a TGI [10] of 4.22 µM. It also gave a GI50 [11] of 3.15 µM, a TGI [11] of 8.55 µM and a GI50 [12] of 1.68 µM. For the same molecule, the TGI [12] was 4.15 µM, the GI50 [13] was 1.45 µM and the TGI [13] was 2.79 µM. The GI50 [14] was 2.04 µM, the TGI [14] was 12.3 µM and the GI50 [56] was 0.853 µM. For the same molecule, the TGI [56] was 3.05 µM, the GI50 [15] was 0.667 µM and the TGI [15] was 2.35 µM. For the same molecule, the GI50 [16] was 1.3 µM, the TGI [16] was 2.86 µM and the GI50 [17] was 2.49 µM. For the same molecule, the TGI [17] was 7.02 µM, the GI50 [18] was 1.99 µM and the TGI [18] was 5.21 µM. It also gave a GI50 [57] of 0.369 µM, a TGI [57] of 0.982 µM and a GI50 [19] of 0.704 µM. It also gave a TGI [19] of 2.12 µM, a GI50 [20] of 1.81 µM and a TGI [20] of 6.07 µM. For the same molecule, the GI50 [21] was 1.61 µM, the TGI [21] was 3.98 µM and the GI50 [22] was 0.736 µM. The TGI [22] was 2.23 µM, the GI50 [23] was 0.431 µM and the TGI [23] was 1.78 µM. For the same molecule, the GI50 [24] was 0.4 µM, the TGI [24] was 1.46 µM and the GI50 [25] was 1.49 µM. The TGI [25] was 7.78 µM, the GI50 [26] was 0.876 µM and the TGI [26] was 4.81 µM. For the same molecule, the GI50 [27] was 1.48 µM, the TGI [27] was 2.93 µM and the GI50 [28] was 1.48 µM. It also gave a TGI [28] of 3.93 µM, a GI50 [29] of 1.27 µM and a TGI [29] of 4.85 µM. For the same molecule, the GI50 [30] was 2.19 µM, the TGI [30] was 10.4 µM and the GI50 [32] was 1.51 µM. It also gave a TGI [32] of 5.81 µM, a GI50 [33] of 2.53 µM and a TGI [33] of 10.3 µM. It also gave a GI50 [34] of 0.988 µM, a TGI [34] of 2.52 µM and a GI50 [35] of 0.365 µM. For the same molecule, the TGI [35] was 1.09 µM, the GI50 [58] was 0.626 µM and the TGI [58] was 2.45 µM. For the same molecule, the GI50 [36] was 1.33 µM, the TGI [36] was 3.59 µM and the GI50 [37] was 1.54 µM. For the same molecule, the TGI [37] was 3.39 µM, the GI50 [38] was 0.329 µM and the TGI [38] was 10.7 µM. The GI50 [39] was 1.09 µM, the TGI [39] was 2.91 µM and the GI50 [40] was 0.399 µM. For the same molecule, the TGI [40] was 2.63 µM, the GI50 [41] was 0.886 µM and the TGI [41] was 2.35 µM. For the same molecule, the GI50 [42] was 0.948 µM, the TGI [42] was 2.27 µM and the GI50 [43] was 1.02 µM. It also gave a TGI [43] of 2.49 µM, a GI50 [44] of 0.348 µM and a TGI [44] of 0.733 µM. It also gave a GI50 [45] of 0.19 µM, a TGI [45] of 0.444 µM and a GI50 [46] of 0.467 µM. It also gave a TGI [46] of 1.57 µM, a GI50 [47] of 3.8 µM and a TGI [47] of 28.5 µM. It also gave a GI50 [48] of 1.37 µM, a TGI [48] of 3.12 µM and a GI50 [49] of 0.729 µM. It also gave a TGI [49] of 2.32 µM, a GI50 [50] of 2.15 µM and a TGI [50] of 9.08 µM. For the same molecule, the GI50 [51] was 1.65 µM, the TGI [51] was 3.98 µM and the GI50 [52] was 1.52 µM. It also gave a TGI [52] of 3.42 µM, a GI50 [53] of 1.2 µM and a TGI [53] of 4.99 µM. The GI50 [54] was 0.461 µM and the TGI [54] was 1.73 µM.
